Source: publication PMC4153739 (Biochemistry, 2012)

Columns and labels:
[1] = target: NR1-2b/NR2C NMDA receptor (Rattus norvegicus, UniProt P35439+Q00961); format: cell-based; details: 10 µM
[2] = system: 6 Hz partial psychomotor seizure
[3] = system: NR1–2a-containing NMDA receptor subtypes; format: cell-based, rat; details: 10 µM
[4] = target: NR1-2b/NR2B NMDA receptor (Rattus norvegicus, UniProt P35439+Q00960); format: cell-based
[5] = format: physicochemical; details: pH 7
[6] = target: NR1-2b/NR2D NMDA receptor (Rattus norvegicus, UniProt P35439+Q62645); format: cell-based; details: 10 µM
Chain of NR1-2b/NR2D NMDA receptor (Q62645 28-1323, other chains not shown): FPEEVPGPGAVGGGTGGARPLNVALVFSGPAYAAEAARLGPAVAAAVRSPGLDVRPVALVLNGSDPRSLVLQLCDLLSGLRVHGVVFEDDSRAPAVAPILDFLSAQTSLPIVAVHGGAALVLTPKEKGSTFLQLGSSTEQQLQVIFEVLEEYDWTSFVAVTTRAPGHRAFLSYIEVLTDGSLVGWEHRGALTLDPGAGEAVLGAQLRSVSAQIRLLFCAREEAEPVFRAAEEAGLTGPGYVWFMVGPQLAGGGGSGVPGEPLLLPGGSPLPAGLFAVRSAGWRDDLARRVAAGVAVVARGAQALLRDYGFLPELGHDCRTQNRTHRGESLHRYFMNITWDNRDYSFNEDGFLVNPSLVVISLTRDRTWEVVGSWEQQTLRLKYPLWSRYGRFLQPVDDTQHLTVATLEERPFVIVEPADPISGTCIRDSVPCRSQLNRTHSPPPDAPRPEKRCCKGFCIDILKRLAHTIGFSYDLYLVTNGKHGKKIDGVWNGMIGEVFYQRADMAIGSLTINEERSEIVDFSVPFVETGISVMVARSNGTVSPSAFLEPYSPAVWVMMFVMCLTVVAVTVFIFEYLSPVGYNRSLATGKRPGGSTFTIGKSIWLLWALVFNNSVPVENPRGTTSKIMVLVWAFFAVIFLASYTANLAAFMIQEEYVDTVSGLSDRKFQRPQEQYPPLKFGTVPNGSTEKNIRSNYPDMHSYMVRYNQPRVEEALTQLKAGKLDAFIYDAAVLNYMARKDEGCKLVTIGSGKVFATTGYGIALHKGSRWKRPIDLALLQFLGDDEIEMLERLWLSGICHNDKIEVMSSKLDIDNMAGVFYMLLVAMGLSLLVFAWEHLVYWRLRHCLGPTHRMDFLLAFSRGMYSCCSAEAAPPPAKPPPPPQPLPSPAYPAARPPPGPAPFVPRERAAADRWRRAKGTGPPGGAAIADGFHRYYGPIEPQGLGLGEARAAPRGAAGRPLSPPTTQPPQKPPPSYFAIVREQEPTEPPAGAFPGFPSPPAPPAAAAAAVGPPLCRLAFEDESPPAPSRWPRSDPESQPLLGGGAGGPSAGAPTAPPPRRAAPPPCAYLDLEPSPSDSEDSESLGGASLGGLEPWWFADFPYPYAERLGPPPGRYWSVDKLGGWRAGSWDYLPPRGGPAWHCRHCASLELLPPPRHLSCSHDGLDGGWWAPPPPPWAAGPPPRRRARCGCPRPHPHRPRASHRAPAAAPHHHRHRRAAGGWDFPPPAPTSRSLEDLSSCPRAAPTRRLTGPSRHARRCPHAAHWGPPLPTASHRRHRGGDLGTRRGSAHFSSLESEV

Chain of NR1-2b/NR2C NMDA receptor (Q00961 20-1237, other chains not shown): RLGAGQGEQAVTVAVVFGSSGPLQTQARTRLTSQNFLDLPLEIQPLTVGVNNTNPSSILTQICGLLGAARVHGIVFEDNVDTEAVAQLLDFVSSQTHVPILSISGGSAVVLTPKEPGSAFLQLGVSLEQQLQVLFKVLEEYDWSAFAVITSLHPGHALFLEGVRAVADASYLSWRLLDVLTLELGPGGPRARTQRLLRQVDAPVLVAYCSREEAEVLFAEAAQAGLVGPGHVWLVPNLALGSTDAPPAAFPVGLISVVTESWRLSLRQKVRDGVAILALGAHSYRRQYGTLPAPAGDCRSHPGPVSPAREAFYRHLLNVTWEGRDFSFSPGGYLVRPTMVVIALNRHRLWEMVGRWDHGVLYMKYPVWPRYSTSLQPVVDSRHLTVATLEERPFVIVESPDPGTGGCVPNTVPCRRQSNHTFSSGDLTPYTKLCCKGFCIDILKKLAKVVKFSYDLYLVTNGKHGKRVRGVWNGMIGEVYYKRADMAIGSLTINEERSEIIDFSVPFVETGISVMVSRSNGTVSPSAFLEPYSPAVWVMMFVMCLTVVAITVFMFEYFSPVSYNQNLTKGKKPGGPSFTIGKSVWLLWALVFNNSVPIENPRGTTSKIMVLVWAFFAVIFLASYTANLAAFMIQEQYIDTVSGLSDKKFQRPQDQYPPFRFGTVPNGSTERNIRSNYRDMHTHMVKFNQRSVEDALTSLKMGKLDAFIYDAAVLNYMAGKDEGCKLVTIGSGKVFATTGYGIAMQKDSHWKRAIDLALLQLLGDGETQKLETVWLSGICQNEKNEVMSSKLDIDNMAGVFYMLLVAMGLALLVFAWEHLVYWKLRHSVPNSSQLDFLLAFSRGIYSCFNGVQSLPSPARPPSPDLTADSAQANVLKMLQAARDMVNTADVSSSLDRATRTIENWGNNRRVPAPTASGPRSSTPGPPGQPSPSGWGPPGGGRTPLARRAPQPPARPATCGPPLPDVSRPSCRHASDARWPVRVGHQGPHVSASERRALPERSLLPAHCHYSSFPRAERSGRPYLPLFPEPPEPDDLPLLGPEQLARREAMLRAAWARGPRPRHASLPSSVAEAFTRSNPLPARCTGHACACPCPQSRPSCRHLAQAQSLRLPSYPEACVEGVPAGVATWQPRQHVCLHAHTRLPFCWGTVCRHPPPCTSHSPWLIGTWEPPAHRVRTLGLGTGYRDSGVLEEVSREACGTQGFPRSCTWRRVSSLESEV
Chain of NR1-2b/NR2B NMDA receptor (Q00960 27-1482, other chains not shown): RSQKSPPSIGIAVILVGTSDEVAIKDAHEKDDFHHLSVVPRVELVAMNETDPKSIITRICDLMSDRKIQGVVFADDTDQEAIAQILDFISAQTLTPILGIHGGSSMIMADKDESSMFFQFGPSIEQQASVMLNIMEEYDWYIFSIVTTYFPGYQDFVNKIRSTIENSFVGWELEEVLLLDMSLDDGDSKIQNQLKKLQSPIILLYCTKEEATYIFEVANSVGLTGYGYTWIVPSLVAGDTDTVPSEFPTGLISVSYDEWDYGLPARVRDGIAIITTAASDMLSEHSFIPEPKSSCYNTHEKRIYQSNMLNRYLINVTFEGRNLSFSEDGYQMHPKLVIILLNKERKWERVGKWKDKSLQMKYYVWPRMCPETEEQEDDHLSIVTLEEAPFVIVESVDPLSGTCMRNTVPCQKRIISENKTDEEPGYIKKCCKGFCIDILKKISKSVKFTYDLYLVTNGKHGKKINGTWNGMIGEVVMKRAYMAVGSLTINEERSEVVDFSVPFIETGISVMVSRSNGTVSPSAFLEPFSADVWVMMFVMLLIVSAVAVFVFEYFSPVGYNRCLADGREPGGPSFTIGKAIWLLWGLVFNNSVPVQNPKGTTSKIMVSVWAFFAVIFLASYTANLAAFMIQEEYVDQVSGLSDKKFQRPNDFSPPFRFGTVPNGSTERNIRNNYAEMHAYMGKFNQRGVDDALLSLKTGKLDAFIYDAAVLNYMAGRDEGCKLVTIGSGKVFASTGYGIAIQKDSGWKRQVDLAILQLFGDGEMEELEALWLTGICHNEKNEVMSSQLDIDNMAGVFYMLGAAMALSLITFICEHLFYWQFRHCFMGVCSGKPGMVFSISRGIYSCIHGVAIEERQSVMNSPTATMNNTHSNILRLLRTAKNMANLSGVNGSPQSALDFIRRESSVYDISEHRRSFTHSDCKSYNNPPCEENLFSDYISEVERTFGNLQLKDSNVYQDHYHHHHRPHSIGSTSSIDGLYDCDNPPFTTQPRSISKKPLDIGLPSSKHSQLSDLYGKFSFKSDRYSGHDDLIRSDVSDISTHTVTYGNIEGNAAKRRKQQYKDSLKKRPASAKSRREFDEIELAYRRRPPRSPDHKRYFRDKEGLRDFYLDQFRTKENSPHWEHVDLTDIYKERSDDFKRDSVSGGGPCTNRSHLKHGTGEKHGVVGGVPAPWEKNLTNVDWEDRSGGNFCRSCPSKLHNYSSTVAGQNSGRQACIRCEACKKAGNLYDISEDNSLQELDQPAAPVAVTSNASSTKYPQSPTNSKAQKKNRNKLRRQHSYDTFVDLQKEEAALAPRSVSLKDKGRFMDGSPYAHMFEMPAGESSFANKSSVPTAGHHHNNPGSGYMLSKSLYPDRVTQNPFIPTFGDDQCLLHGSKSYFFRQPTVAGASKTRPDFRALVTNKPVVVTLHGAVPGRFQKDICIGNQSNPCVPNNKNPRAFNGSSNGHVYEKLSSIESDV

## CC(C)C[C@H](NC(=O)[C@H](CC(C(=O)O)C(=O)O)NC(=O)[C@H](CCCNC(=N)N)NC(=O)[C@H](C)NC(=O)[C@H](Cc1ccccc1)NC(=O)[C@H](CC(C(=O)O)C(=O)O)NC(=O)[C@@H]1C[C@@H](O)CN1C(=O)[C@H](C)NC(=O)[C@H](CCCCN)NC(=O)[C@H](CC(C(=O)O)C(=O)O)NC(=O)[C@H](C)NC(=O)[C@H](CC(C)C)NC(=O)[C@H](CC(C(=O)O)C(=O)O)NC(=O)[C@H](CC(C(=O)O)C(=O)O)NC(=O)[C@H](CCC(=O)O)NC(=O)CN)C(=O)N[C@@H](C)C(=O)N[C@@H](CC(N)=O)C(N)=O [ConRl-B]
[1]
  antagonist activity at the highest concentration tested, NR2C: little or no antagonist activity
[2]; mouse, in vivo
  rectal body temperature versus saline control group: did not differ between groups
[2]; n=8
  mice protected from seizures: 50%
[3]
  potency on NR1-2a-containing subtypes: little or no potency
[4]
  discrimination between NR2B and all other NR2 subunits: at least 100 fold
[5]
  estimated helical content in the presence of calcium: 59%
  estimated percentage of helicity in the absence of calcium: 10%
  percent of helical transition induced by calcium: 49%
[6]
  antagonist activity at the highest concentration tested, NR2D: little or no antagonist activity
